Test results taken from patent US4522944A, “Carboxamido-derivatives of 5H-1,3,4-thiadiazolo[3,2-a]pyrimidines, compositions and use” (priority 1982, dated 1985).

Legend:
[1] = tested on: edema formation in the hind paw; assay: Carrageenin induced oedema (edema formation in the hind paw of rats); format: in vivo; details: rat, oral administration; approximate ED50; read-out: Anti-inflammatory activity, Carrageenin induced oedema, ED50
Text: (§1) The hydroxy protecting groups, for instance, may be removed by mild reaction conditions, e.g. acid hydrolysis.
(A) the edema formation in the hind paw of rats in response to a subplantar injection of carrageenin, according to the method of C. A. Winter et al. (J. Pharmac. Exp. Therap. 1963, 141, 369) and P. Lence (Arch. Int. Pharmacodyn., 1962, 136, 237), and
(§2) The following Tables I and II show, for example, the approximate ED50 values of the anti-inflammatory activity in the above mentioned tests, in the rat after oral administration, for a compound of this invention: 2-(3-pyridyl)-5-oxo-5H-1,3,4-thiadiazolo[3,2-a]pyrimidine-6-N-(2-pyridyl)-carboxamide (internal code FCE 22914): […]

[2] = tested on: Reversed Passive Arthus Reaction (RPAR) in rat paw; assay: Reversed Passive Arthus Reaction (RPAR) in rat paw; format: in vivo; details: oral administration, approximate ED50, read-out: Anti-inflammatory activity, RPAR reaction, ED50
Text: as §1
(B) the Reversed Passive Arthus Reaction (RPAR) in rat paw, induced by the interaction of antigen and antibody resulting in the formation of precipitating immune complex, followed by fixation of complement and accumulation of polymorphonuclear leucocytes at a focal point (D. K. Gemmell, J. Cottney and A. J. Lewis, Agents and Actions 9/1 pag. 107, 1979).
as §2

[3] = tested on: mice; assay: phenylquinone test in mice (analgesic activity); format: in vivo; details: 50 mg/kg, oral administration
Experimental: The analgesic activity was assessed, for example, by means of the phenylquinone test in mice according to Siegmund: [Siegmund et al. Proc. Soc. Exper. Biol. Med. 95, 729 (1957)]. In this test the compound FCE 22914, for example, gives a 30% inhibition at 50 mg/kg after oral administration. It is known that certain thiadiazolo-pyrimidine derivatives are endowed with anti-allergic and anti-asthma activity, e.g. those described in Published Japan Patent Application No. J57 142989, but such compounds are devoid of any anti-inflammatory and/or analgesic activity.

[4] = approximate acute toxicity (LD50); details: in vivo, po; mouse, per os, single administration of increasing doses, measured on the seventh day after treatment
Experimental: In view of their high therapeutic index, the compounds of the invention can be used safely in medicine. For example, the approximate acute toxicity (LD50) of the compounds 2-(3-pyridyl)-5-oxo-5H-1,3,4-thiadiazolo[3,2-a]pyrimidine-6-N-(2-pyridyl)-carboxamide and 5-oxo-5H-1,3,4-thiadiazolo[3,2-a]pyrimidine-6-N-(2-pyridyl)-carboxamide in the mouse, determined by single administration of increasing doses and measured on the seventh day after treatment, is higher than 800 mg/kg per os. Analogous toxicity data have been found for other compounds of the invention.

Compound | ED50 [1] [mg/kg] | ED50 [2] [mg/kg] | inhibition in phenylquinone test (analgesic activity) [3] [%] | LD50 at 168 h [4] [mg/kg]
O=C(Nc1ccccn1)c1cnc2sc(-c3cccnc3)nn2c1=O [FCE 22914, 2-(3-pyridyl)-5-oxo-5H-1,3,4-thiadiazolo[3,2-a]pyrimidine-6-N-(2-pyridyl)-carboxamide] | 45.9 | 85.2 | 30 | > 800
O=C(Nc1ccccn1)c1cnc2scnn2c1=O [5-oxo-5H-1,3,4-thiadiazolo[3,2-a]pyrimidine-6-N-(2-pyridyl)-carboxamide] | – | – | – | > 800
